Assay [1] concerns [Candida] auris. Briefly: Antifungal activity against Candida auris MRL6057. The conditions noted are these: Candidozyma auris. The assay is classed as functional.
Assay [2] concerns [Candida] auris. Nature of the assay: Antifungal activity against Candida auris MRL6057 assessed as dead cells at 0.49 ug/ml. The assay is classed as functional, Candidozyma auris. The conditions noted are these: dose 0.49 µg/ml.
The subject of assay [3] is [Candida] auris. Nature of the assay: Antifungal activity against Candida auris MRL6057 assessed as dead cells at 0.98 ug/ml. The assay is classed as functional, Candidozyma auris. Particulars: dose 0.98 µg/ml.
Assay [4] concerns [Candida] auris. Briefly: Antifungal activity against Candida auris MRL6057 assessed as dead cells at 1.96 ug/ml. Particulars: dose 1.96 µg/ml. The format is functional, Candidozyma auris.
Assay [5] has as its system Candida albicans. Briefly: Antifungal activity against Candida albicans assessed as dead cells. The assay is classed as functional.
Assay [6] has as its system [Candida] auris. Briefly: Induction of cell cycle arrest in Candida auris MRL6057 cells assessed as cell population at G0/G1 phase at 0.5xMIC measured by Muse cell analyzer. The format is functional, Candidozyma auris.
Assay [7] concerns [Candida] auris. Nature of the assay: Induction of cell cycle arrest in Candida auris MRL6057 cells assessed as cell population at S phase at 0.5xMIC measured by Muse cell analyzer. The assay is classed as functional, Candidozyma auris.
Assay [8] concerns [Candida] auris. Briefly: Induction of cell cycle arrest in Candida auris MRL6057 cells assessed as cell population at G2/M phase at 0.5xMIC measured by Muse cell analyzer. The assay is classed as functional, Candidozyma auris.
Assay [9] relates to [Candida] auris. Briefly: Induction of cell cycle arrest in Candida auris MRL6057 cells assessed as cell population at G0/G1 phase at MIC measured by Muse cell analyzer. The format is functional, Candidozyma auris.
Assay [10] deals with [Candida] auris. Briefly: Induction of cell cycle arrest in Candida auris MRL6057 cells assessed as cell population at S phase at MIC measured by Muse cell analyzer. The format is functional, Candidozyma auris.
The subject of assay [11] is [Candida] auris. Briefly: Induction of cell cycle arrest in Candida auris MRL6057 cells assessed as cell population at G2/M phase at MIC measured by Muse cell analyzer. The assay is classed as functional, Candidozyma auris.
Assay [12] has as its system [Candida] auris. Nature of the assay: Induction of oxidative stress in Candida auris MRL6057 incubated for 2 hrs and assessed as increase in LPO activity. The assay is classed as functional, organism-based. Particulars: Candidozyma auris.
The subject of assay [13] is [Candida] auris. Briefly: Induction of oxidative stress in Candida auris MRL6057 incubated for 2 hrs assessed as increase in CAT activity. The format is functional, organism-based. Particulars: Candidozyma auris.
For assay [14], the system named is [Candida] auris. Nature of the assay: Induction of oxidative stress in Candida auris MRL6057 incubated for 2 hrs assessed as increase in SOD activity. The format is functional, organism-based. The conditions noted are these: Candidozyma auris.
For assay [15], the system named is [Candida] auris. Briefly: Induction of oxidative stress in Candida auris MRL6057 incubated for 2 hrs assessed as increase in GPx activity. The assay is classed as functional, organism-based. The conditions noted are these: Candidozyma auris.
Assay [16] deals with [Candida] auris. Nature of the assay: Induction of oxidative stress in Candida auris MRL6057 incubated for 2 hrs assessed as decrease in GLR activity. The format is functional, organism-based. Particulars: Candidozyma auris.
The subject of assay [17] is [Candida] auris. Briefly: Induction of oxidative stress in Candida auris MRL6057 incubated for 2 hrs assessed as decrease in GST activity. Particulars: Candidozyma auris. The assay is classed as functional, organism-based.
The subject of assay [18] is [Candida] auris. Nature of the assay: Induction of oxidative stress in Candida auris MRL6057 incubated for 2 hrs and assessed as upregulation of CATA mRNA expression measured by RT-qPCR analysis. The format is functional, organism-based. Particulars: Candidozyma auris. On the technique in general: Quantitative PCR measures a nucleic acid by following its amplification.

The subject of assay [19] is [Candida] auris. Briefly: Induction of oxidative stress in Candida auris MRL6057 incubated for 2 hrs and assessed as upregulation of SOD4 mRNA expression measured by RT-qPCR analysis. The format is functional, organism-based. Particulars: Candidozyma auris.
Assay [20] concerns [Candida] auris. Nature of the assay: Induction of oxidative stress in Candida auris MRL6057 incubated for 2 hrs and assessed as upregulation of GPx3 mRNA expression measured by RT-qPCR analysis. The format is functional, organism-based. Particulars: Candidozyma auris.
Assay [21] concerns [Candida] auris. Nature of the assay: Induction of oxidative stress in Candida auris MRL6057 incubated for 2 hrs and assessed as downregulation of GST1 mRNA expression measured by RT-qPCR analysis. The format is functional, organism-based. Particulars: Candidozyma auris.
The test system of assay [22] is [Candida] auris. Nature of the assay: Induction of oxidative stress in Candida auris MRL6057 incubated for 2 hrs and assessed as downregulation of GSHR mRNA expression measured by RT-qPCR analysis. The assay is classed as functional, organism-based. The conditions noted are these: Candidozyma auris.
The test system of assay [23] is [Candida] auris. Nature of the assay: Antifungal activity against clinical strain Candida auris. The format is functional. The conditions noted are these: Candidozyma auris.

Converted amounts (≈) assume the structure as drawn. The source made the active and inactive calls.

The MFC is the lowest tested concentration that kills the fungus rather than only halting it. For orientation: MIC means the smallest concentration in the dilution series that meets the test's criterion for growth inhibition. A lower MIC goes with inhibition by little substance. In [1], `O=C(Cn1nnc(/C=C/c2ccccc2)n1)N/N=C/c1ccc([N+](=O)[O-])cc1` showed an MFC of 1.96 µg/mL (≈ 5.19 µM). Besides, the lowest concentration to inhibit growth in assay [1] (MIC) was 0.98 µg/mL (≈ 2.6 µM). The Activity is given as 69.2% in [2]; 83.1% in [3]; 99.9% in assay [4]; 75% in [5]; 48.2% in [6]; 44.5% in assay [7]. The Activity is recorded as 7.2% in assay [8], 2.3% in assay [9], 49.3% in assay [10] and 48.3% in [11]. Moreover, the result in [12], in assay [13], in assay [14], in [15], in assay [16] and in assay [17] was Active. Also, the outcome in [18], in assay [19], in [20], in assay [21] and in assay [22] was Active.
On to `C[C@@H]1[C@H](O)[C@@H](C)/C=C/C=C/C=C/C=C/C=C/C=C/C=C/[C@H](O[C@@H]2O[C@H](C)[C@@H](O)[C@H](N)[C@@H]2O)C[C@@H]2O[C@](O)(C[C@@H](O)C[C@@H](O)[C@H](O)CC[C@@H](O)C[C@@H](O)CC(=O)O[C@H]1C)C[C@H](O)[C@H]2C(=O)O` [AMPHOTERICIN B], for which, in assay [1], the MFC was 8 µg/mL (≈ 8.66 µM) and the MIC was determined as 4 µg/mL (≈ 4.33 µM). Further, the MIC in assay [23] is not below 2 µg/mL.

These data come from ChEMBL document CHEMBL5104163, “Modulation of key antioxidant enzymes and cell cycle arrest as a possible antifungal mode of action of cinnamaldehyde based azole derivative” (2022).
